In patent US10472356B2, “Bicyclic ketone sulfonamide compounds” (AMGEN INC., priority 2015, dated 2019):

Each compound was assayed against T1, human Nav1.7 (Homo sapiens, UniProt Q15858) (assay: Nav 1.7 IWB In Vitro Assay (IonWorks Barracuda)). Details: HEK293 cells stably transfected with human Nav 1.7; IonWorks Barracuda population patch-clamp; cells clamped to −20 mV for 4 minutes with compound; 26th pulse; read-out: hNav1.7 IWB IC50.
T1 construct: expressed in transfected cells; host or cells: HEK293
T1 sequence (Q15858 whole entry): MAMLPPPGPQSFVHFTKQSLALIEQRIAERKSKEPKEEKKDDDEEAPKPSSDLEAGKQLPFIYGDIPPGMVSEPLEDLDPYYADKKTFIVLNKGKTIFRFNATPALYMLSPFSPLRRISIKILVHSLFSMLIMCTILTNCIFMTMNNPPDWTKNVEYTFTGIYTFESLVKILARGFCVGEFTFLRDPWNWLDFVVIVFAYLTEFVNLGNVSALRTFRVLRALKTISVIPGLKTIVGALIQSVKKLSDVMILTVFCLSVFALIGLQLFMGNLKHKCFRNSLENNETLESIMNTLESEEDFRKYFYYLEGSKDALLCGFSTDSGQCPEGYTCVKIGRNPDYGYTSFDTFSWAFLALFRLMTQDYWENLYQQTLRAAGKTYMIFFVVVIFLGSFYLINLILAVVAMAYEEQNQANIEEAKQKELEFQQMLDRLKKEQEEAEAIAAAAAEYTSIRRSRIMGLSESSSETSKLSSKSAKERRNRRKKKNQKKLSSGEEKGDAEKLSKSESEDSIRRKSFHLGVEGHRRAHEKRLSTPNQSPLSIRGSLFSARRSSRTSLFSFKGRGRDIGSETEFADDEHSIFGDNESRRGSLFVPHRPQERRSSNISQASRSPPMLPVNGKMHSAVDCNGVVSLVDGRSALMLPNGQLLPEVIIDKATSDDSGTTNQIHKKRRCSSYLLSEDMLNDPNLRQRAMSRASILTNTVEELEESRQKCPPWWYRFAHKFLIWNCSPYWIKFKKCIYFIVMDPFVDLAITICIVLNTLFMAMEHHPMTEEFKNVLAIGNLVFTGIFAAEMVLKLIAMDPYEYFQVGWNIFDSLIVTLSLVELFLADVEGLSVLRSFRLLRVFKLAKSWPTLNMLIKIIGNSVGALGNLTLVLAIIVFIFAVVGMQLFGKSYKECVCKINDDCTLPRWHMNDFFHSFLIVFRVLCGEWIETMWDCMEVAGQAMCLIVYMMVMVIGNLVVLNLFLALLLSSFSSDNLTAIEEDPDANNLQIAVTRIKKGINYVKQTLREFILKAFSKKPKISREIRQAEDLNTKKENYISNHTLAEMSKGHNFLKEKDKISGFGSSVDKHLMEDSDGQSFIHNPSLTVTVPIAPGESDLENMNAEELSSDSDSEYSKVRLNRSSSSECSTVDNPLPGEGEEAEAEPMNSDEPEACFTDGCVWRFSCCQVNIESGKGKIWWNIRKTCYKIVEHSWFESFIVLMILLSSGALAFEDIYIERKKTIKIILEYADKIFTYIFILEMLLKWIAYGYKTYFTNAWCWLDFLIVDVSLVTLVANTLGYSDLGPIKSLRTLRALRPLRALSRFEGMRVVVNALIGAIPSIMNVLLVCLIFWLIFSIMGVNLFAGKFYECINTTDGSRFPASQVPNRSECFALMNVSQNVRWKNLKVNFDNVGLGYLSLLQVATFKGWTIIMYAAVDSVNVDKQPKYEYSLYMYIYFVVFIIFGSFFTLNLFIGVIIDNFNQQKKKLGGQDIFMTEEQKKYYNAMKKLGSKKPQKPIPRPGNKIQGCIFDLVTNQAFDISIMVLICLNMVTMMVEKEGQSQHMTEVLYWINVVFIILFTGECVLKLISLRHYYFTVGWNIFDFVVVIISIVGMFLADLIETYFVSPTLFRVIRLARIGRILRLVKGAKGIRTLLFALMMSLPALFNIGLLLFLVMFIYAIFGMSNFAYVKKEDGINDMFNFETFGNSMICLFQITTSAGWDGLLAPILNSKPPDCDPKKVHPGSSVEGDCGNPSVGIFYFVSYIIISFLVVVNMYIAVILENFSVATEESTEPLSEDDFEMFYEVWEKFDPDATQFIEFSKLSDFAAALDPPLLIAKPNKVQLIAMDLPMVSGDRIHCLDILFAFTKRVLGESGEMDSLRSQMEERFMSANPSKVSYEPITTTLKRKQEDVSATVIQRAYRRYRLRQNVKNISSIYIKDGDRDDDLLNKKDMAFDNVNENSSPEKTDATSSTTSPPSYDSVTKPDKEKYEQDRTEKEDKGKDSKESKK
Type: cell-based
Protocol: Nav 1.7 IWB In Vitro Assay
HEK293 cells stably transfected with human Nav 1.7 were recorded in population patch-clamp mode with the IonWorks© Barracuda (IWB) automated electrophysiology system (Molecular Devices, LLC, Sunnyvale, Calif.). From a holding potential of −110 mV, sodium currents were elicited by a train of 26 depolarizations of 150 ms duration to −20 mV at a frequency of 5 Hz. Cells were then clamped to −20 mV for a period of 4 minutes in the presence of a single concentration of test compound. Following this compound incubation period, cells were clamped to −110 mV for three seconds to recover unbound channels and put through the same 26 pulse voltage protocol as above. Peak inward current during the 26th pulse to −20 mV in the presence of compound was divided by the peak inward current evoked by the 26th pulse to −20 mV in the absence of compound to determine percent inhibition. Concentration-response curves of percent inhibition as a function of concentration were generated to calculate IC50 values.
`COc1cc(Br)c(F)cc1-n1c2c(ccc1=O)CN(S(=O)(=O)Nc1ncccn1)CC2` (racemic) [Preparation 8a, 1-(4-bromo-5-fluoro-2-methoxyphenyl)-2-oxo-N-2-pyrimidinyl-1,5,7,8-tetrahydro-1,6-naphthyridine-6(2H)-sulfonamide] showed an IC50 of 4240 nM.
For `COc1cc(Br)c(F)cc1-n1c2c(ccc1=O)CN(S(=O)(=O)Nc1cccnn1)CC2` (racemic) [Preparation 8b, 1-(4-bromo-5-fluoro-2-methoxyphenyl)-2-oxo-N-3-pyridazinyl-1,5,7,8-tetrahydro-1,6-naphthyridine-6(2H)-sulfonamide], the IC50 was 1120 nM.
Compound `COc1cc(Br)c(Cl)cc1-n1c2c(ccc1=O)CN(S(=O)(=O)Nc1ccon1)CC2` (racemic) [Preparation 8c, 1-(4-bromo-5-chloro-2-methoxyphenyl)-N-3-isoxazolyl-2-oxo-1,5,7,8-tetrahydro-1,6-naphthyridine-6(2H)-sulfonamide] has an IC50 of 2880 nM.
`COc1cc(-c2cc(F)cc(Cl)c2)c(F)cc1-n1c2c(ccc1=O)CN(S(=O)(=O)Nc1cc(C)ncn1)CC2` (single isomer, unassigned) [Example 4-M, M-1-(3′-chloro-2,5′-difluoro-5-methoxy-4-biphenylyl)-N-(6-methyl-4-pyrimidinyl)-2-oxo-1,5,7,8-tetrahydro-1,6-naphthyridine-6(2H)-sulfonamide] gave an IC50 of 8300 nM.
`COc1cc(-c2cc(F)cc(Cl)c2)c(F)cc1-n1c2c(ccc1=O)CN(S(=O)(=O)Nc1ncns1)CC2` (single isomer, unassigned) [Example 5-M, M-1-(3′-chloro-2,5′-difluoro-5-methoxy-4-biphenylyl)-2-oxo-N-1,2,4-thiadiazol-5-yl-1,5,7,8-tetrahydro-1,6-naphthyridine-6(2H)-sulfonamide] was tested, and the IC50 was 726 nM.
Work on `COc1cc(-c2cc(F)cc(Cl)c2)c(F)cc1-n1c2c(ccc1=O)CN(S(=O)(=O)Nc1ccnc(C)n1)CC2` (single isomer, unassigned) [Example 6-M, M-1-(3′-chloro-2,5′-difluoro-5-methoxy-4-biphenylyl)-N-(2-methyl-4-pyrimidinyl)-2-oxo-1,5,7,8-tetrahydro-1,6-naphthyridine-6(2H)-sulfonamide] yielded an IC50 of 8820 nM.
With `COc1cc(-c2cc(F)cc(Cl)c2)ccc1-n1c2c(ccc1=O)CN(S(=O)(=O)Nc1ccon1)CC2` (single isomer, unassigned) [Example 7-M, M-1-(3′-chloro-5′-fluoro-3-methoxy-4-biphenylyl)-N-3-isoxazolyl-2-oxo-1,5,7,8-tetrahydro-1,6-naphthyridine-6(2H)-sulfonamide] the IC50 was 1210 nM.
`COc1cc(-c2cc(F)cc(Cl)c2)ccc1-n1c2c(ccc1=O)CN(S(=O)(=O)Nc1cccnn1)CC2` (single isomer, unassigned) [Example 8-M, M-1-(3′-chloro-5′-fluoro-3-methoxy-4-biphenylyl)-2-oxo-N-3-pyridazinyl-1,5,7,8-tetrahydro-1,6-naphthyridine-6(2H)-sulfonamide] showed an IC50 of 2950 nM.
With `COc1cc(-c2cc(F)cc(F)c2)c(F)cc1-n1c2c(ccc1=O)CN(S(=O)(=O)Nc1cccc(F)n1)CC2` (single isomer, unassigned) [Example 14-M, M-N-(6-fluoro-2-pyridinyl)-2-oxo-1-(2,3′,5′-trifluoro-5-methoxy-4-biphenylyl)-1,5,7,8-tetrahydro-1,6-naphthyridine-6(2H)-sulfonamide] the IC50 was 452 nM.
`COc1cc(-c2cccc(C(F)(F)F)c2)c(F)cc1-n1c2c(ccc1=O)CN(S(=O)(=O)Nc1ccon1)CC2` (single isomer, unassigned) [Example 16-M, M-1-(2-fluoro-5-methoxy-3′-(trifluoromethyl)-4-biphenylyl)-N-3-isoxazolyl-2-oxo-1,5,7,8-tetrahydro-1,6-naphthyridine-6(2H)-sulfonamide] was tested, and the IC50 was 720 nM.
With `COc1cc(-c2ccc(Cl)c(C)c2)c(F)cc1-n1c2c(ccc1=O)CN(S(=O)(=O)Nc1ccon1)CC2` (single isomer, unassigned) [Example 24-M, M-1-(4′-chloro-2-fluoro-5-methoxy-3′-methyl-4-biphenylyl)-N-3-isoxazolyl-2-oxo-1,5,7,8-tetrahydro-1,6-naphthyridine-6(2H)-sulfonamide] the IC50 was 462 nM.
`COc1cc(-c2ccc(Cl)c(C)c2)c(F)cc1-n1c2c(ccc1=O)CN(S(=O)(=O)Nc1cccnn1)CC2` (single isomer, unassigned) [Example 33-M, M-1-(4′-chloro-2-fluoro-5-methoxy-3′-methyl-4-biphenylyl)-2-oxo-N-3-pyridazinyl-1,5,7,8-tetrahydro-1,6-naphthyridine-6(2H)-sulfonamide] was tested, and the IC50 was > 10000 nM.
`COc1cc(C#CC2CCCC2)c(F)cc1-n1c2c(ccc1=O)CN(S(=O)(=O)Nc1ccon1)CC2` (single isomer, unassigned) [Example 34-M, M-1-(4-(cyclopentylethynyl)-5-fluoro-2-methoxyphenyl)-N-3-isoxazolyl-2-oxo-1,5,7,8-tetrahydro-1,6-naphthyridine-6(2H)-sulfonamide] gave an IC50 of 9720 nM.
For `COc1cc(-c2cc(OC)c(-n3c4c(ccc3=O)CN(S(=O)(=O)Nc3ccon3)CC4)cc2F)ccc1C` (single isomer, unassigned) [Example 58-M, M-1-(2-fluoro-3′,5-dimethoxy-4′-methyl-4-biphenylyl)-N-3-isoxazolyl-2-oxo-1,5,7,8-tetrahydro-1,6-naphthyridine-6(2H)-sulfonamide], the IC50 was 1480 nM.
In the case of `COc1cc(CCC(F)(F)F)c(Cl)cc1-n1c2c(ccc1=O)CN(S(=O)(=O)Nc1cccnn1)CC2` (single isomer, unassigned) [Example 96-M, M-1-(5-chloro-2-methoxy-4-(3,3,3-trifluoropropyl)phenyl)-2-oxo-N-(pyridazin-3-yl)-1,2,7,8-tetrahydro-1,6-naphthyridine-6(5H)-sulfonamide], the IC50 is reported as 856 nM.
In the case of `COc1cc(Br)c(Cl)cc1-n1c2c(ccc1=O)CN(S(=O)(=O)Nc1ccon1)CC2` (single isomer, unassigned) [Preparation 8c-M, M-1-(4-bromo-5-chloro-2-methoxyphenyl)-N-3-isoxazolyl-2-oxo-1,5,7,8-tetrahydro-1,6-naphthyridine-6(2H)-sulfonamide], the IC50 is reported as > 25000 nM.
`COc1cc(Br)c(Cl)cc1-n1c2c(ccc1=O)CN(S(=O)(=O)Nc1ccon1)CC2` (single isomer, unassigned) [Preparation 8c-P, P-1-(4-bromo-5-chloro-2-methoxyphenyl)-N-3-isoxazolyl-2-oxo-1,5,7,8-tetrahydro-1,6-naphthyridine-6(2H)-sulfonamide] showed an IC50 of 768 nM.
With `COc1cc(Br)c(F)cc1-n1c2c(ccc1=O)CN(S(=O)(=O)Nc1ccncn1)CC2` (single isomer, unassigned) [Preparation 8f-M, M-1-(4-bromo-5-fluoro-2-methoxyphenyl)-2-oxo-N-(pyrimidin-4-yl)-1,2,7,8-tetrahydro-1,6-naphthyridine-6(5H)-sulfonamide] the IC50 was > 25000 nM.
`COc1cc(Br)c(F)cc1-n1c2c(ccc1=O)CN(S(=O)(=O)Nc1ccncn1)CC2` (single isomer, unassigned) [Preparation 8f-P, P-1-(4-bromo-5-fluoro-2-methoxyphenyl)-2-oxo-N-(pyrimidin-4-yl)-1,2,7,8-tetrahydro-1,6-naphthyridine-6(5H)-sulfonamide] was tested, and the IC50 was 193 nM.
